Source: patent US11932606B2, “Anti-cancer/anti-fibrosis compounds” (THE REGENTS OF THE UNIVERSITY OF CALIFORNIA, priority 2017, dated 2024)
Where two headings read alike, the source gives them in different places.

Experiments:
CDK19 (inactive) = CDK19 (inactive) (Homo sapiens (Human), UniProt Q9BWU1); test: CDK19 (inactive) LanthaScreen Eu kinase binding assay; details: read-out: IC50 against CDK19
Procedure: Compounds were screened in 1% DMSO (final) in the well. For 10 point titrations, 3-fold serial dilutions were conducted from the starting concentration.
The Bar-coded, low volume, white 384-well plate (Greiner Cat. #784207) were used for the assay. […] Then the Kinase Reaction was incubated at room temperature for 60 minutes. After the 1 hour Kinase Reaction incubation, the plate was read on a fluorescence plate reader (Infinite F500, Tecan Systems Inc, USA) and data was analyzed using XLfit from IDBS. The dose response curve was curve fit to model number 205 (sigmoidal dose-response model).

SET-2 = test: AML cell viability (CellTiter-Glo, day 7); assay type: cell-based; details: Homo sapiens
MOLM-14 xenograft = test: MOLM-14 mouse xenograft model; assay type: in vivo; details: 50 mg/kg orally b.i.d.
Procedure: 40 athymic nude mice (Taconic Biosciences) were injected with 5×10^6 MOLM-14 cells in 50% matrigel s.c. in flank. Cell Injection Volume is 0.2 ml/mouse for MOLM-14. Age of mice at start date is 12-14 weeks. Perform a pair match when tumors grows after two weeks and begin treatment. Compound 29 was dissolved in saline and was given orally twice a day on a schedule of five days on/two days off for three weeks. Body weight and tumor size were measured every other day when mice being treated. After the last administration, mice were euthanized for tumor collection. […] In the MOLM-14 xenograft model, mice were treated with compound 29 at 50 mg/kg for 21 days (orally, b.i.d). The tumor volume from control and vehicle group was measured. […] Body weights of mice in both groups were measured and plotted.

HIPK2 = HIPK2 (Homo sapiens (Human), UniProt Q9H2X6); test: HIPK2 enzymatic activity inhibition (Z'-LYTE); assay type: biochemical; details: read-out: HIPK2 IC50
HIPK2, sequence (Q9H2X6 whole entry): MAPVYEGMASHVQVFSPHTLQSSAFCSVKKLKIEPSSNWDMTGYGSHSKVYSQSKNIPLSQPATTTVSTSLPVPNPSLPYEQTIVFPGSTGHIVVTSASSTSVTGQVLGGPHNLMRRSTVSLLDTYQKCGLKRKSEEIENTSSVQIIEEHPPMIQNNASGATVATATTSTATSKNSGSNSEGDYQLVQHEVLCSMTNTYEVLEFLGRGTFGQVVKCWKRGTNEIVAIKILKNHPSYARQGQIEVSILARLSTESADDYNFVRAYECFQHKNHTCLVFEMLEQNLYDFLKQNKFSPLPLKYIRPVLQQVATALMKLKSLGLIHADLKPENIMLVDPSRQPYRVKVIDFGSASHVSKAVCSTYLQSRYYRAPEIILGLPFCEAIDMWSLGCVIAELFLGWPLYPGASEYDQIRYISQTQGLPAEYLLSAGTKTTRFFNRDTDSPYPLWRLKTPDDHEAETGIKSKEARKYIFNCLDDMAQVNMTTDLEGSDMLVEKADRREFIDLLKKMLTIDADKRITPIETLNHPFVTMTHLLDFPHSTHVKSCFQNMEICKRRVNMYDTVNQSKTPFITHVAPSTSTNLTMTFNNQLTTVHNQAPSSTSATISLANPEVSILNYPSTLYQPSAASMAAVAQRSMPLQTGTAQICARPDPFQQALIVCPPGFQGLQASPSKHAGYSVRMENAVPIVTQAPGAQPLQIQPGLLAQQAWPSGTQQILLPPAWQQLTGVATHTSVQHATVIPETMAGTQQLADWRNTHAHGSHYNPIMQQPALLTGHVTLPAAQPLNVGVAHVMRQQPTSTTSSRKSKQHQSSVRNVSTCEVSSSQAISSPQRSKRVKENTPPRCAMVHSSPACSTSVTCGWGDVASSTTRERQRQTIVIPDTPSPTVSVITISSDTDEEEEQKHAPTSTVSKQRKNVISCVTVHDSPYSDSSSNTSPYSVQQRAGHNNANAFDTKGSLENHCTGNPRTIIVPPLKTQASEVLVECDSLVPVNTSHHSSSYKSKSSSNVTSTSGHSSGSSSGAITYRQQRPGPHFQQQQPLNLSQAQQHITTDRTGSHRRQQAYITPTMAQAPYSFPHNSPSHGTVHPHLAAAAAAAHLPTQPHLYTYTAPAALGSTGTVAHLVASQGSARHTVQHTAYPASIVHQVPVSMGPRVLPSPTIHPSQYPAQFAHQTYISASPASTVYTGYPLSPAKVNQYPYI
Procedure: HIPK2 Enzymatic Activity Inhibition: Determination of IC50 Values for Selected Compounds
The half maximal inhibitory concentration (IC50) with respect to HIPK2 inhibition was determined for the compounds of the invention by using Z′-LYTE™ from ThermoFisher Scientific's SelectScreen™ Biochemical Kinase Profiling Service (Waltham, MA). Compounds were screened in 1% DMSO (final) in the well. For 10 point titrations, 3-fold serial dilutions were conducted from the starting concentration. The 2×HIPK2/Ser/Thr 09 mixture was prepared in 50 mM HEPES pH 7.5, 0.01% BRIJ-35, 10 mM MgCl2, 1 mM EGTA.
100 nL of 100× test compound in 100% DMSO, 2.4 uL of kinase buffer (50 mM HEPES pH 7.5, 0.01% BRIJ-35, 10 mM MgCl2, 1 mM EGTA), 5 uL of 2×HIPK2/Ser/Thr 09 mixture, and 2.5 uL of 4×ATP solution were mixed and agitated for 30 seconds. Then the Kinase Reaction was incubated at room temperature for 60 minutes. […] After 30 second of plate shake, the reaction plate was incubated for another 60 min at room temperature. Then the plate was read on a fluorescence plate reader (CLARIOstar, BMG Labtech, Germany) as plate reader and data was analyzed using XLfit from IDBS.

[1] = system: MOLM-14 AML cancer cell line; test: Western blot of treated cells; assay type: cell-based; details: MOLM-14, 30 nM up to 3 μM, 24 hours and 48 hours

CDK19 (inactive), sequence (Q9BWU1 whole entry): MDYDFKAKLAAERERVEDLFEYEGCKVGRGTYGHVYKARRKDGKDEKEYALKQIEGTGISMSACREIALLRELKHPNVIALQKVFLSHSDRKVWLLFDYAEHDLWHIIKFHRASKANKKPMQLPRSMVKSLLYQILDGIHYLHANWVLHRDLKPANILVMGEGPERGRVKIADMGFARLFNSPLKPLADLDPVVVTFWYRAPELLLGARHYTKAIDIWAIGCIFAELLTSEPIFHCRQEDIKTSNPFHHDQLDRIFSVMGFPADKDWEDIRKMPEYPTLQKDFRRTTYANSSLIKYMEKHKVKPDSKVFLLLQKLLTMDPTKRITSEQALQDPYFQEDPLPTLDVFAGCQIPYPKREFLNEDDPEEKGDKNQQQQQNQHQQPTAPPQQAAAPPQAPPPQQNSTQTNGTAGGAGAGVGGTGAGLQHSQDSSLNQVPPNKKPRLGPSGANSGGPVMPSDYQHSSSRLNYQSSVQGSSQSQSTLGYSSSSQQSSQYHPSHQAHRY

IC50 (CDK19 (inactive)): < 300 nM
weight loss (MOLM-14 xenograft; during treatment): < 5%
IC50 (HIPK2): < 300 nM
Compound: Nc1nccc2c(Br)cc3cc(C(=O)[O-])ccc3c12.[Na+] [Compound 29, Sodium 1-amino-5-bromobenzo[h]isoquinoline-8-carboxylate]
IC50 (SET-2; 168 h, SET-2, day 7, read-out: Cell viability IC50): < 1000 nM
IC50 (SET-2; SET-2, text statement, read-out: potency in cell viability assay): < 1000 nM
Growth of tumors (tumor volume) (MOLM-14 xenograft; 21 days): greatly inhibited
level of p-STAT1(Ser727), p-STAT3(Tyr705), p-STAT5(Ser726) and YAP [1]: down regulate
